This is an account of results in a melting point compilation (Tetko et al.; mined from patent text by program, amines drawn as free bases though some values may be those of a salt).

SMILES strings stand for the structures.

Regarding `Cc1cc(C)c2c(c1OCC(=O)O)Cc1sc(SCCC(c3ccccc3)c3ccccc3)nc1-2`, the melting point is 156 to 158 °C. For `CC(C)(C)NC(=O)[C@@H](N)C(C)(C)C`, the melting point lay in the range of 78 to 80 °C. `Cc1[nH]c(N)c(C)c1-c1ccnc(Nc2ccc(F)cc2)n1` yielded a melting point of 227 to 231 °C. Regarding `O=C(O)c1cc(Br)cc2c1NCCS2=O` (stereo not given), the melting point was 254 to 255 °C. To `CN(c1nnc(C(F)(F)F)s1)C1CCN(Cc2ccc(F)cc2)CC1` belongs 85.8 °C.

`Cc1cc(C(=O)O)ccc1-c1c(C)cccc1C` came in with a melting point of 172 to 173 °C.

The compound `COc1cc(C(=O)c2cccnc2)ccc1OCc1ccccc1` returned a melting point of 76 °C. In turn, `Cc1nnc2c(Cl)nc([N+](=O)[O-])c(N)n12` showed a melting point of 220 °C. As to `CC(=O)NNc1ccc(Cl)c(Cl)c1`, the melting point was in the range of 179 to 182 °C. Compound `CCOc1cc2ncc(NCc3ccccc3)nc2cc1OCC` had a melting point of 136 °C.

Compound `CCCCCCCNC(=O)Nc1ccc(N2CCOCC2)cc1C(=O)NCC1CCN(C(c2ccccc2)c2ccccc2)CC1` showed a melting point of 153 to 155 °C. Compound `COc1cc(OC)c(-c2cc3ccccc3[nH]2)cc1C=CC(=O)c1ccc(S(=O)(=O)N(C)C)cc1` registered a melting point of 158 to 162 °C. As for `COc1cc(C(=O)c2c(C)c(C(=O)O)c3ccccn23)ccc1[N+](=O)[O-]`, the figure is 215 °C; as for `Cc1cc2c(cc1N(Cc1ccccc1)Cc1ccccc1)OC(=O)C2C` (stereo not given), 122 to 123 °C. The compound `CCCOc1ccc(S(=O)(=O)N2CCCC(C(=O)OCC)C2)cc1-c1nc2cc(Cl)c([N+](=O)[O-])cc2c(=O)[nH]1` (stereo not given) returned a melting point of 196 to 197 °C. For `CC1(C)CC(=O)CC(C)(P(=O)(O)O)C1` (stereo not given), the melting point was 167 to 168 °C. With `COc1cc2c(c(OC)c1OC)CCN(c1nc(N)c3cc(OC)c(OC)c(OC)c3n1)C2`, the melting point fell in the range of 193 to 195 °C. The compound `CCOC(=O)c1cc2c(=O)n(CC)c3ccccc3n2c1` gave a melting point of 184 to 186 °C. `COC(=O)C1Cc2c([nH]c3ccccc23)C(c2ccccc2Br)N1C(=O)CCl` (stereo not given): the melting point is 113 to 115 °C. Regarding `COc1ccc(/C=C/c2c(Cl)cncc2Cl)c2cc(-c3ccccn3)oc12`, the melting point is 157 to 158 °C. As for `COc1ccc(C(=O)Nc2c(Cl)cncc2Cl)c2c1oc1ccc(Br)cc12`, the figure is 308 °C; as for `O=S(=O)(c1ccc(Cl)cc1)C1(c2cccnc2Cl)CCCCCC1`, 168 to 169 °C. `CCc1cnc(SC(C)(C)C)c(C#N)c1` showed a melting point of 63 to 66 °C. With `C=C(c1ccccc1)c1cccc(C(C)C(=O)OC)c1` (stereo not given), the melting point was in the range of 69 to 71 °C.

As to `COc1nc(C(F)(F)F)cc(=O)n1-c1cc(C(=O)OC(C)C)c(Cl)cc1F`, the melting point lay within 121 to 123 °C. To `COC(=O)CC=CCC(=O)NCCc1ccccc1` belongs 69 to 70 °C; to `N#Cc1ccc(-c2c[nH]nc2C(F)(F)F)cc1SCC(F)(F)F`, 65 to 67 °C; to `O=C(OCCBr)N1CCCSC1=C[N+](=O)[O-]`, 79 to 81 °C. Take `Cc1ccc(C(=O)c2ccc(Cl)cc2)c(Cl)c1`: the melting point is 58 to 60.5 °C. Consider `CCc1cc(C)cc(CC)c1C1C(=O)CC(CC(C)S(=O)(=O)CC)CC1=O` (stereo not given), for which the melting point was 62 to 65 °C. `N#Cc1ccc(COc2ccc3c(c2)CCNC3=O)cc1` came in with a melting point of 158 to 160 °C. As to `NC(N)=Nc1nc(-c2csc(CNC(=O)CSCc3ccco3)n2)cs1`, the melting point worked out at 204 °C. On to `CCCCCCCC[C@]1(C)OO[C@@H]2C[C@H]1CC(=O)[C@@H]2C`, for which the melting point is 27 °C. On to `Cc1ccc2c(c1)oc1c(C(=O)NN3CCCC3)nn(-c3ccc(Cl)cc3Cl)c12`, for which the melting point was in the range of 90 to 92 °C. On to `CC(=O)N[C@H]1CCCc2ccccc21`, for which the melting point was in the range of 153 to 155 °C.
